The nature of the series: Human HepG2 cell viability assay in 384 well format. The format is toxicity, cell-based. The settings on record: HepG2 cells, read-out: Inhibition. Also on record: dose 125 nL, time 70.5 hour; cytotoxicity at 70.5 h: concentration not given beside the values.

Consider 75 compounds from ChEMBL document CHEMBL3507680, “University of Dundee, Gates Library screen for HepG2 cell viability”.

As to `Cc1ccc(CN(C(=O)NCC(c2cccs2)N(C)C)C2CC2)o1` (stereo not given), the cytotoxicity at 70.5 h was -5.44%. With `COc1ccccc1C(=O)N1CCN(CCc2scnc2C)CC1` the figure was -7.23%; with `Cc1cnc(CNc2ccccc2CN(C)C(=O)c2cccs2)o1`, 18.4%; with `CC1CCN(C(=O)C2CCN(c3ccc(Cl)cc3C#N)CC2)CC1`, -6.44%. Take `Cc1ccc(OCc2nc(CNCCn3cccn3)cs2)cc1`: the cytotoxicity at 70.5 h was -2.86%. Consider `CC(C)COCCC(=O)Nc1cccnc1-n1cncn1`, for which the cytotoxicity at 70.5 h was -6.91%. In the case of `COCCNC(=O)N1CCCC(COc2ccccc2)C1` (stereo not given) it was 1.11%; in that of `Cc1ccc2nc(CNc3ccccc3C(=O)NC3CC3)cn2c1`, -4.35%. In the case of `COc1ccc(C(=O)NCCN(C)C)c(I)c1` it was 2.46%; in that of `COc1ccc(C(=O)NCCC(N)=O)c(I)c1`, 24.4%; in that of `CC(CO)(NC(=O)NCCc1ccc(Br)s1)C1CC1` (stereo not given), -11%.

Take `Cc1cc(CNC(=O)NC(C)(CO)C2CC2)c(C)s1` (stereo not given): the cytotoxicity at 70.5 h was -5.03%. With `NC(=O)CN(C(=O)C1Cc2cc(Cl)ccc2O1)C1CCCC1` (stereo not given) the figure was 24.1%; with `Cc1csc(C2(NCc3csc(C4CC4)n3)CCCC2)n1`, -9.17%; with `c1csc(C2(NCc3csc(C4CC4)n3)CCCC2)n1`, -7.26%. Turning to `Cc1noc(C)c1CCC(=O)N1CCn2cccc2C1C` (stereo not given), the cytotoxicity at 70.5 h is -0.947%. With `COCCCS(=O)(=O)N(Cc1cccc(C)c1)Cc1ccccn1` the figure was 8.58%. `CC(C)CCN1CCN(C(=O)c2c[nH]nn2)CC1`: the cytotoxicity at 70.5 h was determined as 14%. In the case of `CCN(CC)S(=O)(=O)N(Cc1ccccn1)Cc1ccccc1C` it was 43.2%; in that of `CCN(CC1CCOC1)C(=O)c1ccn(-c2ccc(OC)cc2)n1` (stereo not given), -3.5%.

Consider `COc1ccccc1CN(CC1CCCO1)C(=O)c1scnc1C` (stereo not given), for which the cytotoxicity at 70.5 h was -12.6%. With `Cc1cccnc1NC(=O)NC(CCO)C(C)(C)C` (stereo not given) the figure was -2.8%. Turning to `CCN(CC1CCOC1)C(=O)c1cn2ccc(C)cc2n1` (stereo not given), the cytotoxicity at 70.5 h was -16.3%.

For `CC(C)(C)c1nc(CNC2CCN(S(C)(=O)=O)CC2)cs1`, the cytotoxicity at 70.5 h is -8.36%. With `CCc1nc(CNC2CCN(S(C)(=O)=O)CC2)cs1` the figure was -0.997%.

Turning to `CC1CN(C)CCN1C(=O)Nc1nc(-c2ccco2)cs1` (stereo not given), the cytotoxicity at 70.5 h was -13.7%. With `CC1CN(C)CCN1C(=O)Nc1nc(-c2cccn2C)cs1` (stereo not given) the figure was -13.9%; with `Cn1cnnc1CCNC(=O)c1cnn(Cc2ccccc2)c1`, -14.9%. With `CCC1CN(C)c2ccccc2CN1C(=O)Nc1ccc(C)cc1` (stereo not given) the figure was -2.3%. Turning to `COc1ccc(CNc2cccnc2-n2cccn2)cc1OC`, the cytotoxicity at 70.5 h is -14.2%. With `COc1ccc(C)cc1-n1ccc(C(=O)NCC2CCCOC2)n1` (stereo not given) the figure was -11.7%. In the case of `COc1cc(CN(C)CCc2ccncc2)c(SC)cc1OC` it was -7.73%; in that of `COc1cc(CN(C)Cc2ccncc2)c(SC)cc1OC`, -10.7%; in that of `CC(C)CCN1CCN(C(=O)c2cnccn2)CC1`, 18.6%. In the case of `CCN(CC1CCOC1)C(=O)c1ccn(-c2cc(C)ccc2OC)n1` (stereo not given) it was -2.72%; in that of `CN(C)c1ccc(CN(CC2CCCO2)C(=O)c2csnn2)cc1` (stereo not given), -14.8%; in that of `CCN(CC)S(=O)(=O)c1ccc(CNc2cc(C)nc(C)n2)cc1`, -12.1%. In the case of `Fc1ccc(OCCNC2CCN(Cc3ccccn3)CC2)c(F)c1`, the cytotoxicity at 70.5 h was determined as 20.2%.

Regarding `N#Cc1ccc(NCC(O)c2ccco2)c(C(F)(F)F)c1` (stereo not given), the cytotoxicity at 70.5 h was -6.87%. In the case of `CN(CCN1CCOC1=O)CC(=O)Nc1ccc(Cl)c(C(F)(F)F)c1` it was -22%; in that of `COCC(C)NC(=O)CSc1ccc(F)c(Cl)c1` (stereo not given), 12%; in that of `Cc1ccc(C(CNCc2cccc3c2OCO3)N2CCOCC2)o1` (stereo not given), -17%. With `CC(=O)N1CCC(C(=O)NCc2ncc(-c3ccccc3)o2)CC1` the figure was -14.2%; with `O=C(NCc1ncc(-c2ccccc2)o1)NC1CCC(O)CC1` (stereo not given), -7.39%.

With `Clc1snnc1CN1CCN(c2nccs2)CC1`, the cytotoxicity at 70.5 h is -13.7%.

For the compound `CC(CNC(=O)c1cn(-c2ccccc2)nn1)Cn1cccn1` (stereo not given), the cytotoxicity at 70.5 h worked out at 13.9%. In the case of `Cc1ccc(-n2cc(C(=O)NCC(C)Cn3cccn3)nn2)cc1` (stereo not given) it was -14.5%; in that of `CN(CCC#N)C(=O)Cn1nnnc1C(C)(C)C`, -16.8%. With `CS(=O)(=O)CCC(=O)NC1(c2cccc(C(F)(F)F)c2)CCC1` the figure was -24.7%; with `Cc1ccnc(NC(=O)C2CCN(CCCc3cn[nH]c3)CC2)c1`, -14.2%. In the case of `CCC(C(=O)Nc1ccc(-c2nc(C)n[nH]2)cc1)N1CCCC1=O` (stereo not given) it was -9.81%; in that of `Cc1cccc2c1NC1(CCOCC1)NC2=O`, -26.4%; in that of `CCN1CCc2c(cccc2NC(=O)N(C)C2CCSC2)C1` (stereo not given), -10.8%. As for `CCN1CCN(c2ccccc2NC(=O)N(C)C2CCSC2)CC1` (stereo not given), the cytotoxicity at 70.5 h was -13.8%. With `CCC(C(=O)Nc1ccc2c(C)n[nH]c2c1)N1CCCC1=O` (stereo not given) the figure was 21.5%. Regarding `CC(=O)NCCNC(=O)c1cc(C)ccc1SC1CCCC1`, the cytotoxicity at 70.5 h is -11.6%. In the case of `Cc1ccnc(NC(=O)C2CCN(CCCn3ccnc3C)CC2)c1` it was -13%; in that of `O=S(=O)(Cc1ccc(F)cc1F)NCCOc1cccnc1`, -18.9%; in that of `Cc1ccc(SC2CCCC2)c(C(=O)NCCO)c1`, -23.4%. In the case of `CC(O)CNc1ccc(C#N)cc1C(F)(F)F` (stereo not given) it was -12.9%. With `O=C(CCC1CCCO1)NCCc1ccccn1` (stereo not given) the figure was -10%; with `Cc1csc(N2CCN(Cc3nnsc3Cl)CC2C)n1` (stereo not given), -16%; with `CCn1c(CN(C)Cc2cnc(C)s2)nc2cc(F)ccc21`, 10.8%. Regarding `CC1CN(Cc2nnsc2Cl)CCN1c1nccs1` (stereo not given), the cytotoxicity at 70.5 h is -19.1%.

Take `CO[C@H]1CN(C(=O)OC(C)(C)C)CC1NCc1ccn(C)c1` (stereo not given in full): the cytotoxicity at 70.5 h was -6.04%.

Consider `c1csc(C(CNCc2cccc3c2OCO3)N2CCOCC2)c1` (stereo not given), for which the cytotoxicity at 70.5 h was -13.2%. As to `NC(=O)c1cccc(CCNCc2cnc(C3CCC3)s2)c1`, the cytotoxicity at 70.5 h is 7.84%. In the case of `Cc1nn(C)c(C)c1NC(=O)CN1CCCC1c1noc(C2CC2)n1` (stereo not given) it was 8.6%; in that of `CS(=O)(=O)c1ccccc1C(=O)NCC1Cc2ccccc2O1` (stereo not given), -4.69%. With `Cc1nccn1-c1cc(CNC(=O)C(C)(C)C)ccn1` the figure was -4.88%; with `Cc1nccn1-c1cc(CNC(=O)c2ccccn2)ccn1`, -4.56%. With `CCCOc1ccc(NC(=O)NCCC(=O)N(C)C)cc1Cl` the figure was -4.39%. Take `N#Cc1ccc(CNCC2CCN(CCO)CC2)cc1`: the cytotoxicity at 70.5 h was -5.67%. With `O=C(CCc1nccs1)N1CCC(N2CCNC2=O)CC1` the figure was -3.7%; with `O=C(Cc1cccs1)NC1CCN(c2cccc(F)c2)CC1`, 1.18%.
